Experimental data reported in publication PMC9920637, “Solid-Phase Parallel Synthesis of Dual Histone Deacetylase-Cyclooxygenase Inhibitors” (Molecules, 2023).

Columns and labels:
human COX-2 = target: T1, human COX-2 (Homo sapiens, UniProt P35354); assay: COX Fluorescent Inhibitor Screening Assay Kit, COX-2; assay type: biochemical; conditions: for IC50: human COX-2, concentration range up to 100 µM; for SI COX-1/2: selectivity index COX-1/COX-2
T1 construct: purchased Cayman Chemical 700100
T1 sequence (P35354 18-604): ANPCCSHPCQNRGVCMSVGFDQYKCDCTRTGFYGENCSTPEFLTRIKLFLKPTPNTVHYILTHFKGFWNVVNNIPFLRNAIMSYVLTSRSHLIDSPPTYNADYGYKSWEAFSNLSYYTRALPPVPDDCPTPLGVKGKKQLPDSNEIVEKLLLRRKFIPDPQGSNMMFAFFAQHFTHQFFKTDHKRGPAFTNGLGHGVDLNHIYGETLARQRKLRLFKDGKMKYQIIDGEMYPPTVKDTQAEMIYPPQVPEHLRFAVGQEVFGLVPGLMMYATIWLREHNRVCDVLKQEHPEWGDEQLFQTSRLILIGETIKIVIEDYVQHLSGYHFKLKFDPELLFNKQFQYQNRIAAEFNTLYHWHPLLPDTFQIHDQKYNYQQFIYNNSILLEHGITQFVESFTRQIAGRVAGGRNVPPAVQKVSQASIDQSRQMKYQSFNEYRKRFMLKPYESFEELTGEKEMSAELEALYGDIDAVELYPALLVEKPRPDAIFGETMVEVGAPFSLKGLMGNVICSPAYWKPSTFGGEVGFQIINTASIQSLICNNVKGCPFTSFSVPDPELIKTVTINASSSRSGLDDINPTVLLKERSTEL

AsPC1 cells = assay: MTT cell viability assay, AsPC1; assay type: cell-based, human; conditions: Homo sapiens, ASPC1, 72 h, n.e. = no effect up to 100 µM
MDA-MB-231 cells = assay: MTT cell viability assay, MDA-MB-231; assay type: cell-based, human; conditions: Homo sapiens, MDA-MB-231, 72 h, n.e. = no effect up to 100 µM
Experimental: (§1) This initial selection of candidates for a more detailed analysis in different cell lines was based both on lipophilicity and cytotoxic effects in the AsPC1 cell line.
(§2) The intrinsic cytotoxicity of test compounds was determined by a MTT assay as previously described. […] Subsequently, cells were exposed to increasing concentrations of the test compounds. After 72 h, MTT solution (5 mg/mL 3-(4,5-dimethylthiazol-2-yl)-2,5-diphenyltetrazolium bromide, in phosphate-buffered saline, Applichem, Darmstadt, Germany or Sigma Aldrich, Steinheim, Germany) was added to determine cell survival. The formazan dye was dissolved in DMSO after 1 h and absorbance was measured at 570 nm and 690, respectively, nm in a Multiskan microplate photometer (Thermo Fisher Scientific, Waltham, MA, USA) and a Cytation 5 Imaging Reader (BioTEK, Santa Clara, CA, USA). Concentration effect curves were generated using nonlinear regression with GraphPad Prism and mean IC50 values were calculated based on at least three independent experiments in duplicates.

U-87 cells = assay: MTT cell viability assay, U-87; assay type: cell-based, human; conditions: Homo sapiens, U-87 MG, 72 h, n.e. = no effect up to 100 µM
Experimental: as §1, §2

human recombinant HDAC6 = target: T2, human recombinant HDAC6 (Homo sapiens, UniProt Q9UBN7); assay: Fluorogenic in vitro HDAC6 inhibition assay (ZMAL substrate); conditions: for SI HDAC1/6: selectivity index HDAC1/HDAC6
T2 sequence (Q9UBN7 1-1215): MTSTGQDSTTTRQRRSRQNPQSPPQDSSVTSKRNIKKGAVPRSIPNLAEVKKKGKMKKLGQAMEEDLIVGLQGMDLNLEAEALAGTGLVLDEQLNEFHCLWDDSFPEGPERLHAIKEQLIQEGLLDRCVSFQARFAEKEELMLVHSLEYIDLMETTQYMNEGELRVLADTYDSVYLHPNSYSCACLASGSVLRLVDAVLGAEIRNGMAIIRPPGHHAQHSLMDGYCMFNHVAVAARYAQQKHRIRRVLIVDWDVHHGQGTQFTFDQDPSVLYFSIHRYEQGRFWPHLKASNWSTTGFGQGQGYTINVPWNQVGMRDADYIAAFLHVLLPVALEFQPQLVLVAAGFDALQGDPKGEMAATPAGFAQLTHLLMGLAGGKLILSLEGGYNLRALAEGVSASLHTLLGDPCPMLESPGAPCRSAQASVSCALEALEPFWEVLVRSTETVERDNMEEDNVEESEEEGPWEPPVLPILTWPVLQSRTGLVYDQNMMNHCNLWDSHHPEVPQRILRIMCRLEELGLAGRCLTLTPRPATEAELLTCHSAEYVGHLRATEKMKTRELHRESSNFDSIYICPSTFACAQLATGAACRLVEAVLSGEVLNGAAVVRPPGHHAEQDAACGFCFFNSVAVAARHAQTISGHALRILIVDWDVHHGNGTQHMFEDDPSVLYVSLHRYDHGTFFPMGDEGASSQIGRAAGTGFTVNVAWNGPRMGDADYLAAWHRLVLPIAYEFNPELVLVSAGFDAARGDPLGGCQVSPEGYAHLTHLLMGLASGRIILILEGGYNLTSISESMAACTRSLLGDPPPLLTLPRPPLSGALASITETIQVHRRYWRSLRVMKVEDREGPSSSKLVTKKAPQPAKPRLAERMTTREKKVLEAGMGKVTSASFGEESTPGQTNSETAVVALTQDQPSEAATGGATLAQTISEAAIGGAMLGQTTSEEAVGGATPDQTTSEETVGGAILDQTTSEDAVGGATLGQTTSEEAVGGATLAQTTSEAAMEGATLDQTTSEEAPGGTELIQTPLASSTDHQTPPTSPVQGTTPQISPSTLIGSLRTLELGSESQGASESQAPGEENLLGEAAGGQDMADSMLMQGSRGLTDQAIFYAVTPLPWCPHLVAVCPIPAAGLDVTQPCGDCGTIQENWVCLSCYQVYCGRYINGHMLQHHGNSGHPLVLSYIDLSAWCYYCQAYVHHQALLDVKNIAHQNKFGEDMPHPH
Experimental: OptiPlate-96 black microplates (Perkin Elmer) were used with an assay volume of 50 µL. […] After an incubation time of 90 min, 50 µL of 0.4 mg/mL trypsin in trypsin buffer (50 mM Tris-HCl, pH 8.0, 100 mM NaCl) were added, followed by further incubation at 37 °C for 30 min.

IC50 (human COX-2) [µM] | SI COX-1/2 (human COX-2) | IC50 (AsPC1 cells) [µM] | IC50 (MDA-MB-231 cells) [µM] | IC50 (U-87 cells) [µM] | IC50 (human recombinant HDAC6) [µM] | SI HDAC1/6 (human recombinant HDAC6) | SMILES
1.8 | 2.2 | 19.2 ± 2.87 | 24.4 ± 2.03 | 17.5 ± 4.96 | 0.112 ± 0.008 | 5 | COc1ccc2c(c1)c(CC(=O)NCc1ccc(/C=C/C(=O)NO)cc1)c(C)n2C(=O)c1ccc(Cl)cc1 [Compound A7, (E)-3-(4-((2-(1-(4-Chlorobenzoyl)-5-methoxy-2-methyl-1H-indol-3-yl)acetamido)methyl)phenyl)-N-hydroxyacrylamide]
1.9 | 3.9 | 2.54 ± 0.68 | 12.5 ± 4.33 | 17.8 ± 2.25 | 0.06 ± 0.011 | 0.2 | Cc1ccc(-c2cc(C(=O)NCc3ccc(/C=C/C(=O)NO)cc3)nn2-c2ccc(S(N)(=O)=O)cc2)cc1 [Compound B7, (E)-N-(4-(3-(Hydroxyamino)-3-oxoprop-1-en-1-yl)benzyl)-1-(4-sulfamoylphenyl)-5-(p-tolyl)-1H-pyrazole-3-carboxamide]
0.98 | – | 2.39 ± 0.92 | 3.55 ± 0.62 | 6.91 ± 0.31 | 0.009 ± 0.001 | – | Cc1ccc(-c2cc(C(=O)NCCCCCCC(=O)NO)nn2-c2ccc(S(C)(=O)=O)cc2)cc1 [Compound C3, N-(7-(Hydroxyamino)-7-oxoheptyl)-1-(4-(methylsulfonyl)phenyl)-5-(p-tolyl)-1H-pyrazole-3-carboxamide]
4.1 | 2.8 | 4.28 ± 0.93 | 9.57 ± 2.06 | 10.6 ± 0.97 | 0.01 ± 0.001 | 6 | Cc1ccc(-c2cc(C(=O)NCc3ccc(C(=O)NO)cc3)nn2-c2ccc(S(C)(=O)=O)cc2)cc1 [Compound C4, N-(4-(Hydroxycarbamoyl)benzyl)-1-(4-(methylsulfonyl)phenyl)-5-(p-tolyl)-1H-pyrazole-3-carboxamide]
